pEC50, pIC50: −log10 of the molar value. Several values for one entry are separate records, joined by “and”; a condition that tells them apart may be missing. Identical values can stand only once.
System: NQO1 activation in BEAS-2B cells
Assay: BEAS-2B cellular MTT assay of NQO1 activation, 0% HSA
Type: cell-based
Conditions: Homo sapiens, Serum Free W, read-out: BEAS EC50 (nM) Serum Free W
Summary of the method: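 For the 0% HSA condition, cells were seeded into collagen plates in HSA-free medium. Culture was BEAS-2B in BEBM plus BEGM SingleQuots lacking GA-1000, held under 70% confluence, at a seeding density reaching 95-100% confluence by 48 h.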

| Structure (SMILES) | EC50 [nM] |
| --- | --- |
| Cc1c2ccc3c1nnn3CCCCCc1ccc(cc1)C(=O)N1CCc3ccc(cc3C1)[C@H]2[C@H](C)C(=O)O [Compound 133] | 16 |
| Cc1c2ccc3c1nnn3CCCCCCc1ccc(cc1)C(=O)N1CCc3ccc(cc3C1)[C@H]2[C@H](C)C(=O)O [Compound 134] | 56.5 |
| Cc1c2cnc3c1nnn3CCCCCCc1ccc3c(c1)cc(n3C)C(=O)N1CCc3ccc(cc3C1)C2CC(=O)O (centres unmarked) [Compound 135] | 1.9 |
| Cc1c2ccc3c1nnn3CCCCCCc1ccc(c(F)c1)C(=O)N1CCc3ccc(cc3C1)[C@H]2[C@@H](C)C(=O)O [Compound 141] | > 1000 |
| Cc1c2cnc3c1nnn3CCCCCc1ccc3c(c1)cc(n3C)C(=O)N1CCc3ccc(cc3C1)C2CC(=O)O (centres unmarked) [Compound 143] | 2.2 |
| Cc1c2ccc3c1nnn3CCCCCCc1ccc(c(F)c1)C(=O)N1CCc3ccc(cc3C1)[C@H]2[C@H](C)C(=O)O [Compound 166] | 1.1 |
| Cc1c2ccc3c1nnn3CCCCCCc1ccc(c(F)c1)C(=O)N1CCc3ccc(cc3C1)[C@@H]2[C@@H](C)C(=O)O [Compound 167] | 34.7 |

Same assay, conditions: Homo sapiens, serum free, read-out: BEAS EC50 (nM) serum free

| Structure (SMILES) | EC50 [nM] |
| --- | --- |
| Cc1c2ccc3c1nnn3CCCCCCc1ccc(cc1)C(=O)N1CCc3ccc(cc3C1)[C@H]2[C@H](C)C(=O)O [Compound 134] | 22.6 |
| Cc1c2cnc3c1nnn3CCCCCc1cc(F)c(c(F)c1)C(=O)N1CCc3ccc(cc3C1)[C@@H]2CC(=O)O [Compound 136] | 10 |
| Cc1c2cnc3c1nnn3CCCCCc1ccc(c(F)c1)C(=O)N1CCc3ccc(cc3C1)C2CC(=O)O (centres unmarked) [Compound 137] | 1.9 |

Same assay, conditions: Serum Free W, read-out: BEAS EC50 (nM) Serum Free W

| Structure (SMILES) | EC50 [nM] |
| --- | --- |
| Cc1c2ccc3c1nnn3CCCCCc1ccc(cc1)C(=O)N1CCc3ccc(cc3C1)[C@H]2[C@H](C)C(=O)O [Compound 133] | 31 |
| Cc1c2ccc3c1nnn3CCCCCCc1ccc(cc1)C(=O)N1CCc3ccc(cc3C1)[C@H]2[C@H](C)C(=O)O [Compound 134] | 90.8 |
| Cc1c2cnc3c1nnn3CCCCCCc1ccc3c(c1)cc(n3C)C(=O)N1CCc3ccc(cc3C1)C2CC(=O)O (centres unmarked) [Compound 135] | 1.8 |
| Cc1c2cnc3c1nnn3CCCCCc1ccc3c(c1)cc(n3C)C(=O)N1CCc3ccc(cc3C1)C2CC(=O)O (centres unmarked) [Compound 143] | 2.6 |
| Cc1c2ccc3c1nnn3CCCCCCc1ccc(c(F)c1)C(=O)N1CCc3ccc(cc3C1)[C@@H]2[C@@H](C)C(=O)O [Compound 167] | 36.6 |

Same assay, conditions: serum free, read-out: BEAS EC50 (nM) serum free

| Structure (SMILES) | EC50 [nM] |
| --- | --- |
| Cc1c2ccc3c1nnn3CCCCCCc1ccc(cc1)C(=O)N1CCc3ccc(cc3C1)[C@H]2[C@H](C)C(=O)O [Compound 134] | 20.2 |
| Cc1c2cnc3c1nnn3CCCCCc1cc(F)c(c(F)c1)C(=O)N1CCc3ccc(cc3C1)[C@@H]2CC(=O)O [Compound 136] | 7.3 |
| Cc1c2cnc3c1nnn3CCCCCc1ccc(c(F)c1)C(=O)N1CCc3ccc(cc3C1)C2CC(=O)O (centres unmarked) [Compound 137] | 1.8 |

System: NQO1 activation in BEAS-2B cells
Assay: BEAS-2B cellular MTT assay of NQO1 activation, 0.3% HSA
Type: cell-based
Conditions: BEAS+ W, read-out: BEAS+ W EC50
Summary of the method: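 MTT read-out in BEAS-2B cells grown in BEBM with SingleQuots, no GA-1000, kept below 70% confluence; plates coated with collagen, with 0.3% or 0% HSA medium, seeded to 95-100% confluency at 48 h, 37 °C, 5% CO2.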

| Structure (SMILES) | pEC50 |
| --- | --- |
| Cc1c2ccc3c1nnn3CCCCCc1ccc(cc1)C(=O)N1CCc3ccc(cc3C1)[C@H]2[C@H](C)C(=O)O [Compound 133] | 7.41 |
| Cc1c2ccc3c1nnn3CCCCCCc1ccc(cc1)C(=O)N1CCc3ccc(cc3C1)[C@H]2[C@H](C)C(=O)O [Compound 134] | 6.69 |
| Cc1c2cnc3c1nnn3CCCCCCc1ccc3c(c1)cc(n3C)C(=O)N1CCc3ccc(cc3C1)C2CC(=O)O (centres unmarked) [Compound 135] | 7.93 |
| Cc1c2ccc3c1nnn3CCCCCCc1ccc(c(F)c1)C(=O)N1CCc3ccc(cc3C1)[C@H]2[C@@H](C)C(=O)O [Compound 141] | 5.15 |
| Cc1c2cnc3c1nnn3CCCCCc1ccc3c(c1)cc(n3C)C(=O)N1CCc3ccc(cc3C1)C2CC(=O)O (centres unmarked) [Compound 143] | 7.97 |
| Cc1c2ccc3c1nnn3CCCCCCc1ccc(c(F)c1)C(=O)N1CCc3ccc(cc3C1)[C@H]2[C@H](C)C(=O)O [Compound 166] | 8.57 and 8.54 and 8.38 |
| Cc1c2ccc3c1nnn3CCCCCCc1ccc(c(F)c1)C(=O)N1CCc3ccc(cc3C1)[C@@H]2[C@@H](C)C(=O)O [Compound 167] | 6.88 |

Same assay, conditions: BEAS+, read-out: BEAS+ EC50

| Structure (SMILES) | pEC50 |
| --- | --- |
| Cc1c2ccc3c1nnn3CCCCCCc1ccc(cc1)C(=O)N1CCc3ccc(cc3C1)[C@H]2[C@H](C)C(=O)O [Compound 134] | 7.14 |
| Cc1c2cnc3c1nnn3CCCCCc1cc(F)c(c(F)c1)C(=O)N1CCc3ccc(cc3C1)[C@@H]2CC(=O)O [Compound 136] | 7.61 |
| Cc1c2cnc3c1nnn3CCCCCc1ccc(c(F)c1)C(=O)N1CCc3ccc(cc3C1)C2CC(=O)O (centres unmarked) [Compound 137] | 8.55 |

Same assay, conditions: Homo sapiens, BEAS+ W, read-out: BEAS+ W EC50

| Structure (SMILES) | pEC50 |
| --- | --- |
| Cc1c2ccc3c1nnn3CCCCCc1ccc(cc1)C(=O)N1CCc3ccc(cc3C1)[C@H]2[C@H](C)C(=O)O [Compound 133] | 7.40 |
| Cc1c2ccc3c1nnn3CCCCCCc1ccc(cc1)C(=O)N1CCc3ccc(cc3C1)[C@H]2[C@H](C)C(=O)O [Compound 134] | 6.85 |
| Cc1c2cnc3c1nnn3CCCCCCc1ccc3c(c1)cc(n3C)C(=O)N1CCc3ccc(cc3C1)C2CC(=O)O (centres unmarked) [Compound 135] | 7.72 |
| Cc1c2ccc3c1nnn3CCCCCCc1ccc(c(F)c1)C(=O)N1CCc3ccc(cc3C1)[C@H]2[C@@H](C)C(=O)O [Compound 141] | 5.14 |
| Cc1c2cnc3c1nnn3CCCCCc1ccc3c(c1)cc(n3C)C(=O)N1CCc3ccc(cc3C1)C2CC(=O)O (centres unmarked) [Compound 143] | 7.99 |
| Cc1c2ccc3c1nnn3CCCCCCc1ccc(c(F)c1)C(=O)N1CCc3ccc(cc3C1)[C@H]2[C@H](C)C(=O)O [Compound 166] | 8.66 |
| Cc1c2ccc3c1nnn3CCCCCCc1ccc(c(F)c1)C(=O)N1CCc3ccc(cc3C1)[C@@H]2[C@@H](C)C(=O)O [Compound 167] | 6.99 |

Same assay, conditions: Homo sapiens, BEAS+, read-out: BEAS+ EC50

| Structure (SMILES) | pEC50 |
| --- | --- |
| Cc1c2ccc3c1nnn3CCCCCCc1ccc(cc1)C(=O)N1CCc3ccc(cc3C1)[C@H]2[C@H](C)C(=O)O [Compound 134] | 7.09 |
| Cc1c2cnc3c1nnn3CCCCCc1cc(F)c(c(F)c1)C(=O)N1CCc3ccc(cc3C1)[C@@H]2CC(=O)O [Compound 136] | 7.82 |
| Cc1c2cnc3c1nnn3CCCCCc1ccc(c(F)c1)C(=O)N1CCc3ccc(cc3C1)C2CC(=O)O (centres unmarked) [Compound 137] | 8.72 |

Target: HIS-Keap1 full length / Biotin-Nrf2 (16-mer) (Homo sapiens, UniProt Q14145)
Sequence (Q14145 whole entry): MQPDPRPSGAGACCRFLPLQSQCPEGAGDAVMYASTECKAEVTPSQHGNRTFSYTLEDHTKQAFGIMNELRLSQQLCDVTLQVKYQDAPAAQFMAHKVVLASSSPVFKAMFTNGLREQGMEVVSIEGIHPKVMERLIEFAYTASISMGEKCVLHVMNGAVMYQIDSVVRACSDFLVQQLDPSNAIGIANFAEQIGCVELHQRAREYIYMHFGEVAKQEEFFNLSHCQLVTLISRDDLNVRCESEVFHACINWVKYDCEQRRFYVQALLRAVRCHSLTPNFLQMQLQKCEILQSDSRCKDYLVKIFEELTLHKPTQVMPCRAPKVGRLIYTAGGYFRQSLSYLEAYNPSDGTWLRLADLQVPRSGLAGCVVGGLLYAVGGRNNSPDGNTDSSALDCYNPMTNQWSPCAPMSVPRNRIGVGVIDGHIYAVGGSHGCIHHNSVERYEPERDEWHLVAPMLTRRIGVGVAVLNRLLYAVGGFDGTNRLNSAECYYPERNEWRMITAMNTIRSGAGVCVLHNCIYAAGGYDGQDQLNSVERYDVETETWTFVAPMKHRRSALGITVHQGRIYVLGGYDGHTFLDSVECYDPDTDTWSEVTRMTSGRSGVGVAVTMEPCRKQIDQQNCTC
Assay: biochemical
Conditions: not given

| Structure (SMILES) | pIC50 | IC50 |
| --- | --- | --- |
| Cc1c2ccc3c1nnn3CCCCCc1ccc(cc1)C(=O)N1CCc3ccc(cc3C1)[C@H]2[C@H](C)C(=O)O [Compound 133] | 8.85 and 8.89 | – |
| Cc1c2ccc3c1nnn3CCCCCCc1ccc(cc1)C(=O)N1CCc3ccc(cc3C1)[C@H]2[C@H](C)C(=O)O [Compound 134] | – | 3.8 nM (2×) and 10.4 nM and 9.8 nM |
| Cc1c2cnc3c1nnn3CCCCCCc1ccc3c(c1)cc(n3C)C(=O)N1CCc3ccc(cc3C1)C2CC(=O)O (centres unmarked) [Compound 135] | 9.05 and 8.92 | – |
| Cc1c2cnc3c1nnn3CCCCCc1cc(F)c(c(F)c1)C(=O)N1CCc3ccc(cc3C1)[C@@H]2CC(=O)O [Compound 136] | 8.85 and 8.89 | – |
| Cc1c2cnc3c1nnn3CCCCCc1ccc(c(F)c1)C(=O)N1CCc3ccc(cc3C1)C2CC(=O)O (centres unmarked) [Compound 137] | 9.52 | – |
| Cc1c2ccc3c1nnn3CCCCCCc1ccc(c(F)c1)C(=O)N1CCc3ccc(cc3C1)[C@H]2[C@@H](C)C(=O)O [Compound 141] | < 6.00 | – |
| Cc1c2cnc3c1nnn3CCCCCc1ccc3c(c1)cc(n3C)C(=O)N1CCc3ccc(cc3C1)C2CC(=O)O (centres unmarked) [Compound 143] | 9.15 | – |
| Cc1c2ccc3c1nnn3CCCCCCc1ccc(c(F)c1)C(=O)N1CCc3ccc(cc3C1)[C@H]2[C@H](C)C(=O)O [Compound 166] | 9.15 and 9.22 | – |
| Cc1c2ccc3c1nnn3CCCCCCc1ccc(c(F)c1)C(=O)N1CCc3ccc(cc3C1)[C@@H]2[C@@H](C)C(=O)O [Compound 167] | 7.91 and 7.85 | – |

— patent US12692274B2, “Tetrahydroisoquinoline derivatives for the treatment of red blood disorders and inflammatory diseases” (Sanofi, priority 2020, dated 2026)
